ChEMBL document CHEMBL3301361, “Experimental in vitro DMPK and physicochemical data on a set of publicly disclosed compounds”
In brackets after ≈: the same amount, converted by molar mass.

Key:
[1] = rat, plasma, 5 h
in vitro [2] = conditions: human, plasma, PPB
physchem [3] = conditions: octan-1-ol/water, pH 7.4, LogD7.4
in vitro [4] = conditions: mouse, plasma
in vitro [5] = conditions: Beagle, dog, plasma
[6] = human, plasma, 5 h
in vitro [7] = conditions: Dunkin Hartley, guinea pig, plasma
physchem [8] = conditions: pH 7.4 buffer
physchem [9] = assay: physchem
[10] = ASTRAZENECA: Third most basic pKa value (pKa B3) determined by absorption and potentiometric titration using standard methodology from Sirius Analytical. Experimental range Bases: >= 2.; type: physicochemical; conditions: read-out: pKa_B3
physchem [11] = assay: physchem; remark: listed apart in the source
in vitro [12] = conditions: hepatocytes
in vitro [13] = conditions: human
[14] = CD1, BC, CD1, NMRI, SCID, or Nd, rat, hepatocytes
[15] = dog, plasma, 5 h
in vitro [16] = conditions: SD, HW or BN, rat, plasma

| PPB [1] [%] | fraction unbound at 5 h (in vitro [2]) | logD (physchem [3]) | fraction unbound at 5 h (in vitro [5]) | hepatocyte CLint (in vitro [12]) [µL/min/1e6 cells] | microsomal CLint (in vitro [13]; microsomes) [µL/min/mg] | SMILES | other results |
| --- | --- | --- | --- | --- | --- | --- | --- |
| 98.86 | 0.151 | 3.6 | – | – | – | Cc1ccc(-c2ccc3c(ccc4sc5c(c43)NC[C@@H](C)NC5=O)n2)cn1 | fraction unbound at 5 h (in vitro [4]): 0.0229 |
| 95.82 | – | 1.44 | 0.0321 | – | – | Cc1ccc(S(=O)(=O)Nc2c(C(=O)N[C@@H](C)C(C)(C)C)c(C)nn2-c2ccccc2)cc1 | PPB [6]: 98.89%; fraction unbound at 5 h (in vitro [7]): 0.0818; solubility thermodynamic (physchem [8]): 1020 µM (≈ 465 µg/mL) |
| – | – | – | – | – | – | COc1cc2nc(-c3ccc(N4CCN(C)CC4)cc3)nc(NCCN3CCOCC3)c2cc1OC | pKa (physchem [9]): 6.78; pKa [10]: 5.6; pKa (physchem [11]): 7.93 |
| 98.81 | 0.0021 | – | 0.0014 | 9.77 | – | COc1cc(-n2cnc3cc(-c4ccc(Cl)cc4)sc3c2=O)ccc1OC[C@H](O)C1CC1 | fraction unbound at 5 h (in vitro [4]): 0.0018 |
| – | – | 3.2 | – | – | 63.1 | Fc1cccc(COc2ccc(Nc3ncnc4ccc(-c5cccc(N6CCOCC6)c5)cc34)cc2Cl)c1 | CLint [14]: 44.67 microL/min/1E6 cells |
| – | – | – | – | – | – | CN(C)CCNc1cc(-c2ccc(N3CCN(C)CC3)cc2)nc2ccccc12 | pKa (physchem [9]): 7.96; pKa [10]: 7.31; pKa (physchem [11]): 8.94 |
| – | – | – | – | 6.92 | – | CCOc1ccc(-c2ccc(Cn3c(CC(C)(C)C(=O)O)c(SC(C)(C)C)c4cc(OCc5ccc(C)cn5)ccc43)cc2)cn1 [FIBOFLAPON] | microsomal CLint (in vitro [13]; liver microsomes): 9.77 µL/min/mg; PPB [15]: 99.92% |
| – | 0.02 | 0.91 | 0.0293 | – | < 3 | O=C(O)C[C@H](O)C[C@H](O)/C=C/c1c(C2CC2)nc2ccccc2c1-c1ccc(F)cc1 [PITAVASTATIN] | CLint [14]: 7.11 microL/min/1E6 cells; fraction unbound at 5 h (in vitro [16]): 0.0064 |
| – | 0.005 | 4.13 | 0.0057 | 30 | – | O=C(c1ccc(OCCN2CCCCC2)cc1)c1c(-c2ccc(O)cc2)sc2cc(O)ccc12 [RALOXIFENE] | microsomal CLint (in vitro [13]; liver microsomes): 21 µL/min/mg; PPB ([1]; SD, HW or BN): 99.5%; solubility thermodynamic (physchem [8]): 9.1 µM (≈ 4.31 µg/mL) |
| 99.3 | 0.0037 | 3.76 | – | 114 | 50 | CSc1ccc2c(c1)N(CCC1CCCCN1C)c1ccccc1S2 (stereo not given) [THIORIDAZINE] | – |
